Experimental data reported in EP3509566B1, “COMPOUNDS FOR REDUCING CELLULAR MELANIN CONTENT” (Unilever N.V., priority 2016, dated 2018).
Where two headings read alike, the source gives them in different places.

What was measured:
[1] = Cell viability assay (calcein method); type: cell-based, human; details: human, epidermal melanocytes
Method: (§1) A set of indolyl compounds were purchased from SIGMA-ALDRICH as stocks of 10 mM in 100% DMSO. They were initially examined at 25 uM concentration in cell culture (Table 1) for their ability to reduce melanin content and then, at different doses (Table 2). Neonatal foreskin primary human epidermal melanocytes was sourced from Cascade Biologicals (labelled passage P0). Melanocytes were maintained in Medium 254CF (Cascade Cat. # M-254CF-500) supplemented with human melanocyte growth supplement (Cascade; Cat. # S-002-5), hereafter referred to as MGM. Cells were maintained at 37 °C in a humidified incubator with 5 % CO2 atmosphere. 50,000 cells were seeded in 24 well plate in MGM. After 24 hours, the cultures were treated with various concentrations of test materials and were left undisturbed for a further period of 72 hours. Comparative vehicle controls of 0.25 % (v/v) DMSO were also set up in parallel, simultaneously. At the end of the incubation period, the cell viability was determined using the calcein method. Briefly, cell culture spent media was removed and cells washed once with 0.4 ml of 1x PBS-Ca-Mg solution. […] Plates were covered with aluminium foil and incubated for 30 minutes at 37 °C in the regular CO2 incubator. […] Percentage Melanin content was calculated as the ratio between OD405nm value of any sample to that of DMSO reference sample.

[2] = test system: Neonatal foreskin primary human epidermal melanocytes; assay: Cell viability assay (calcein method); type: cell-based; details: 72 hours
Method: as §1

[3] = test system: Neonatal foreskin primary human epidermal melanocytes; assay: Melanin content assay (OD405nm of cell lysate); type: cell-based
Method: A set of indolyl compounds were purchased from SIGMA-ALDRICH as stocks of 10 mM in 100% DMSO. They were initially examined at 25 uM concentration in cell culture (Table 1) for their ability to reduce melanin content and then, at different doses (Table 2). Neonatal foreskin primary human epidermal melanocytes was sourced from Cascade Biologicals (labelled passage P0). Melanocytes were maintained in Medium 254CF (Cascade Cat. # M-254CF-500) supplemented with human melanocyte growth supplement (Cascade; Cat. # S-002-5), hereafter referred to as MGM. Cells were maintained at 37 °C in a humidified incubator with 5 % CO2 atmosphere. 50,000 cells were seeded in 24 well plate in MGM. After 24 hours, the cultures were treated with various concentrations of test materials and were left undisturbed for a further period of 72 hours. Comparative vehicle controls of 0.25 % (v/v) DMSO were also set up in parallel, simultaneously. At the end of the incubation period, the cell viability was determined using the calcein method. […] Cells were lysed by resuspension and incubation (60 °C/one hour.). Then this lysate was transferred to a fresh 384-well plate and measured OD405nm in a TECAN M1000 plate reader (estimate of relative melanin content). […] Percentage Melanin content was calculated as the ratio between OD405nm value of any sample to that of DMSO reference sample.

[4] = 25 µM, 72 hours, Table 1, 100 = 0.25% DMSO, read-out: % Viability
[5] = Homo sapiens, Melanocyte, 72 h, 25 µM, 72 hours, Table 1, normalized melanin content, read-out: 100* (%Melanin/% Viability)
[6] = Homo sapiens, Melanocyte, 72 h, 25 µM, 72 hours, Table 1, read-out: % reduction in Melanin
[7] = Homo sapiens, Melanocyte, 72 h, 25 µM, 72 hours, Table 1, relative to DMSO, read-out: % Melanin
[8] = 25 µM, 72 hours, Table 2, fresh batch
[9] = Homo sapiens, Melanocyte, 72 h, 25 µM, 72 hours, Table 2, fresh batch, read-out: 100* (% Melanin/%Viability)
[10] = Homo sapiens, Melanocyte, 72 h, 25 µM, 72 hours, Table 2, fresh batch, read-out: % Melanin
[11] = Homo sapiens, Melanocyte, 72 h, 25 µM, 72 hours, Table 2, fresh batch, read-out: % reduction in Melanin
[12] = 3.125 µM, 72 hours, Table 2, fresh batch
[13] = 6.25 µM, 72 hours, Table 2, fresh batch
[14] = 12.5 µM, 72 hours, Table 2, fresh batch
[15] = 50 µM, 72 hours, Table 2, fresh batch

## CC(=O)NC(C)Cc1c[nH]c2ccccc12 (stereo not shown) [Compound #2, N-[2-(1H-indol-3-yl)-1-methylethyl]acetamide, reference compound]
[1]; [4]
  viability at 72 h, 25 µM: 98%
[2]; 25 µM, Table 1
  Calcein Fluorescence: 98 arbitrary unit
[3]; 25 µM, 72 hours, Table 1
  OD405nm (Melanin): 0.108
[3]; 25 µM, Table 1
  melanin reduction (in words): comparatively insignificant
[3]; [5]
  activity at 25 µM: 98%
[3]; [6]
  inhibition at 25 µM: 2%
[3]; [7]
  activity at 25 µM: 96%

## O=c1cc(CO)occ1O [Kojic acid, reference compound]
[1]; % Viability
  viability at 72 h, 25 µM: 102%
  viability at 72 h, 250 µM: 96%
  viability at 72 h, 500 µM: 96%
[3]; [8]
  OD405nm (Melanin): 0.177
[3]; 250 µM, 72 hours, Table 2, fresh batch
  OD405nm (Melanin): 0.152
[3]; 500 µM, 72 hours, Table 2, fresh batch
  OD405nm (Melanin): 0.139
[3]; [9]
  activity at 25 µM: 99.3%
[3]; [10]
  activity at 25 µM: 101%
[3]; [11]
  inhibition at 25 µM: 0.7%
[3]; Homo sapiens, Melanocyte, 72 h, 250 µM, 72 hours, Table 2, fresh batch, read-out: 100* (% Melanin/%Viability)
  activity at 250 µM: 90.4%
[3]; Homo sapiens, Melanocyte, 72 h, 250 µM, 72 hours, Table 2, fresh batch, read-out: % Melanin
  activity at 250 µM: 87%
[3]; Homo sapiens, Melanocyte, 72 h, 250 µM, 72 hours, Table 2, fresh batch, read-out: % reduction in Melanin
  inhibition at 250 µM: 9.6%
[3]; Homo sapiens, Melanocyte, 72 h, 500 µM, 72 hours, Table 2, fresh batch, read-out: 100* (% Melanin/%Viability)
  activity at 500 µM: 83.3%
[3]; Homo sapiens, Melanocyte, 72 h, 500 µM, 72 hours, Table 2, fresh batch, read-out: % Melanin
  activity at 500 µM: 80%
[3]; Homo sapiens, Melanocyte, 72 h, 500 µM, 72 hours, Table 2, fresh batch, read-out: % reduction in Melanin
  inhibition at 500 µM: 16.7%

## CC(=O)O.CC(Cc1c[nH]c2ccccc12)NC(=O)CN (stereo not shown) [Compound #3, 2-amino-N-[2-(1H-indol-3-yl)-1-methylethyl]acetamide acetate]
[1]; [4]
  viability at 72 h, 25 µM: 111%
[2]; 25 µM, Table 1
  Calcein Fluorescence: 111 arbitrary unit
[3]; 25 µM, 72 hours, Table 1
  OD405nm (Melanin): 0.111
[3]; 25 µM, Table 1
  melanin reduction (in words): significant melanin reduction
[3]; [5]
  activity at 25 µM: 89%
[3]; [6]
  inhibition at 25 µM: 11%
[3]; [7]
  activity at 25 µM: 99%

## CC(Cc1c[nH]c2ccccc12)NC(=O)OCCCl (stereo not shown) [Compound #1, 2-chloroethyl [2-(1H-indol-3-yl)-1-methylethyl] carbamate]
[1]; [12]
  viability at 72 h, 3.125 µM: 94%
[1]; [13]
  viability at 72 h, 6.25 µM: 96.6%
[1]; [14]
  viability at 72 h, 12.5 µM: 93.4%
[1]; [4]
  viability at 72 h, 25 µM: 95%
[1]; 25 µM, 72 hours, Table 2, fresh batch, read-out: % Viability
  viability at 72 h, 25 µM: 93.7%
[1]; [15]
  viability at 72 h, 50 µM: 88.3%
[2]; 3.125 µM, Table 2, fresh batch
  Calcein Fluorescence: 94 arbitrary units
[2]; 6.25 µM, Table 2, fresh batch
  Calcein Fluorescence: 96.6 arbitrary units
[2]; 12.5 µM, Table 2, fresh batch
  Calcein Fluorescence: 93.4 arbitrary units
[2]; 25 µM, Table 1
  Calcein Fluorescence: 95 arbitrary unit
[2]; 25 µM, Table 2, fresh batch of melanocytes
  Calcein Fluorescence: 93.7 arbitrary units
[2]; 50 µM, Table 2, fresh batch
  Calcein Fluorescence: 88.3 arbitrary units
[3]; [12]
  % reduction in Melanin: Nil
  OD405nm (Melanin): 0.168
[3]; [13]
  OD405nm (Melanin): 0.146
[3]; [14]
  OD405nm (Melanin): 0.134
[3]; 25 µM, 72 hours, Table 1
  OD405nm (Melanin): 0.093
[3]; [8]
  OD405nm (Melanin): 0.122
[3]; 25 µM, Table 1
  melanin reduction (in words): significant melanin reduction
[3]; [15]
  OD405nm (Melanin): 0.103
[3]; Homo sapiens, Melanocyte, 72 h, 3.125 µM, 72 hours, Table 2, fresh batch, read-out: 100* (% Melanin/%Viability)
  activity at 3.125 µM: 102%
[3]; Homo sapiens, Melanocyte, 72 h, 3.125 µM, 72 hours, Table 2, fresh batch, read-out: % Melanin
  activity at 3.125 µM: 96%
[3]; Homo sapiens, Melanocyte, 72 h, 6.25 µM, 72 hours, Table 2, fresh batch, read-out: 100* (% Melanin/%Viability)
  activity at 6.25 µM: 85.9%
[3]; Homo sapiens, Melanocyte, 72 h, 6.25 µM, 72 hours, Table 2, fresh batch, read-out: % Melanin
  activity at 6.25 µM: 83%
[3]; Homo sapiens, Melanocyte, 72 h, 6.25 µM, 72 hours, Table 2, fresh batch, read-out: % reduction in Melanin
  inhibition at 6.25 µM: 14.1%
[3]; Homo sapiens, Melanocyte, 72 h, 12.5 µM, 72 hours, Table 2, fresh batch, read-out: 100* (% Melanin/%Viability)
  activity at 12.5 µM: 82.4%
[3]; Homo sapiens, Melanocyte, 72 h, 12.5 µM, 72 hours, Table 2, fresh batch, read-out: % Melanin
  activity at 12.5 µM: 77%
[3]; Homo sapiens, Melanocyte, 72 h, 12.5 µM, 72 hours, Table 2, fresh batch, read-out: % reduction in Melanin
  inhibition at 12.5 µM: 17.6%
[3]; [5]
  activity at 25 µM: 87%
[3]; [6]
  inhibition at 25 µM: 13%
[3]; [7]
  activity at 25 µM: 83%
[3]; [9]
  activity at 25 µM: 74.7%
[3]; [10]
  activity at 25 µM: 70%
[3]; [11]
  inhibition at 25 µM: 25.3%
[3]; Homo sapiens, Melanocyte, 72 h, 50 µM, 72 hours, Table 2, fresh batch, read-out: 100* (% Melanin/%Viability)
  activity at 50 µM: 66.8%
[3]; Homo sapiens, Melanocyte, 72 h, 50 µM, 72 hours, Table 2, fresh batch, read-out: % Melanin
  activity at 50 µM: 59%
[3]; Homo sapiens, Melanocyte, 72 h, 50 µM, 72 hours, Table 2, fresh batch, read-out: % reduction in Melanin
  inhibition at 50 µM: 33.2%
[3]; various doses, Table 2
  efficacy compared to Kojic acid (in words): more efficacious at concentrations much lower than Kojic acid
